Measurements taken from patent US7713971B2, “1,2,4-triazine derivatives, preparation and use thereof in human therapy” (Pierre Fabre Medicament, priority 2005, dated 2010).
Read-outs that look alike come from different tables or passages of the source.

Tests used:
[1] = tested on: insulin-resistant male rat (Ico: ZUCKER-fa/fa); assay: Normalization of metabolic parameters (cholesterol, plasma triglycerides) in insulin-resistant rat; type: in vivo; conditions: oral route, once per day for four days, Zucker fa/fa rat unfed 16-18 hours
Description: Normalization of metabolic parameters (cholesterol, plasma triglycerides) in an insulin-resistant male rat (Ico: ZUCKER-fa/fa), unfed for 16-18 hours, after treatment by oral route, once per day for four days, with the compounds to be evaluated or their administration vehicle.
These metabolic parameters are measured by spectrophotometry at the beginning and the end of each animal's treatment.

human PPARα = biological target: T1, human PPARα (Homo sapiens, UniProt Q07869); assay: Reporter gene transactivation, hPPAR-GAL4 alpha; type: cell-based; conditions: transfected Cos-7 cells, Gal-4 luciferase reporter, 24 hours treatment
T1 construct: expressed in transfected cells; host or cells: Cos-7 cells (ATCC, CRL-1651)
T1 sequence (Q07869 239-466 limits assumed): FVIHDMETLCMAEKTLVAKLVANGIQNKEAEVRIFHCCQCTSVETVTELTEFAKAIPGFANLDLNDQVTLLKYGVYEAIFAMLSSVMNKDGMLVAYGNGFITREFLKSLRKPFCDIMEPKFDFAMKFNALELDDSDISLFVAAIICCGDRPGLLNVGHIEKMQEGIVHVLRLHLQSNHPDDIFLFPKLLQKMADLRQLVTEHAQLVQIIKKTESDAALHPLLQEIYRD

human PPARδ = biological target: T2, human PPARδ (Homo sapiens, UniProt Q03181); assay: Reporter gene transactivation, hPPAR-GAL4 delta; type: cell-based; conditions: transfected Cos-7 cells, Gal-4 luciferase reporter, 24 hours treatment
T2 construct: expressed in transfected cells; host or cells: Cos-7 cells (ATCC, CRL-1651)
T2 sequence (Q03181 211-439 limits assumed): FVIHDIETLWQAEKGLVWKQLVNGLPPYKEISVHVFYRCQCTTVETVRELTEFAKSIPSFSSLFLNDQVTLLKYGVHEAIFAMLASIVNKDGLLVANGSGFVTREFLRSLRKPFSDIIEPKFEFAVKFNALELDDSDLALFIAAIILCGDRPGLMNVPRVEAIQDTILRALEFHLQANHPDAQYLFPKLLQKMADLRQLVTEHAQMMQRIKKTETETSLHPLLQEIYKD

human PPARγ = biological target: T3, human PPARγ (Homo sapiens, UniProt P37231); assay: Reporter gene transactivation, hPPAR-GAL4 gamma; type: cell-based; conditions: transfected Cos-7 cells, Gal-4 luciferase reporter, 24 hours treatment
T3 construct: expressed in transfected cells; host or cells: Cos-7 cells (ATCC, CRL-1651)
T3 sequence (P37231 238-503 limits assumed): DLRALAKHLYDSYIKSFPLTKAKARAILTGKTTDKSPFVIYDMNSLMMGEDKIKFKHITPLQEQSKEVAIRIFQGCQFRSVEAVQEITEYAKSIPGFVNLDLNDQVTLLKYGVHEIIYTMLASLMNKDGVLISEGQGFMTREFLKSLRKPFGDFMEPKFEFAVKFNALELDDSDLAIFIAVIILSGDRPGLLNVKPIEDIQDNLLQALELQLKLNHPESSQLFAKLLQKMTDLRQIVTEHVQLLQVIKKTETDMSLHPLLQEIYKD

[2] = 96 h, at 10 mg/kg, read-out: Plasma cholesterol

SMILES | EC50 (human PPARα) [µM] | EC50 (human PPARδ) [µM] | EC50 (human PPARγ) [µM] | change in vivo at 2.5 mg/kg ([1]; 96 h, at 2.5 mg/kg, read-out: Plasma cholesterol) [%] | change in vivo at 10 mg/kg [1, 2] [%] | change in vivo at 10 mg/kg ([1]; 96 h, at 10 mg/kg, read-out: Plasma triglycerides) [%] | Plasma triglycerides ([1]; at 2.5 mg/kg) | Plasma triglycerides ([1]; at 10 mg/kg)
CCCCn1nc(OCCCCCc2cccc(OC(C)(C)C(=O)OCC)c2)c(=O)n(CCCC)c1=O [Example 13, Ethyl 2-{3-[5-(2,4-dibutyl-3,5-dioxo-2,3,4,5-tetrahydro-[1,2,4]triazin-6-yloxy)-pentyl]-phenoxy}-2-methyl-propionate] | 0.01 to 0.03 | ~3 | 0.1 to 0.3 | -8 | -12 | -28 | inactive at 2.5 | 
CCCCCCCn1c(=O)c(OCCCCc2ccc(OC(C)(C)C(=O)OCC)cc2)nn(CCCC(F)(F)F)c1=O [Example 31, Ethyl 2-(4-{4-[4-heptyl-3,5-dioxo-2-(4,4,4-trifluoro-butyl)-2,3,4,5-tetrahydro-[1,2,4]triazin-6-yloxy]-butyl}-phenoxy)-2-methyl-propionate] | ~0.1 | 3 to 10 | ~1 |  |  |  |  | 
CCOC(=O)C(C)(C)Oc1cccc(OCCCOc2nn(CCCC(F)(F)F)c(=O)n(CCCC(F)(F)F)c2=O)c1 [Example 35, Ethyl 2-(3-{3-[3,5-dioxo-2,4-bis-(4,4,4-trifluoro-butyl)-2,3,4,5-tetrahydro-[1,2,4]triazin-6-yloxy]-propoxy}-phenoxy)-2-methyl-propionate] | 0.03 to 0.1 | ~10 | 3 to 10 |  |  |  |  | 
CCOC(=O)C(C)(C)Oc1ccc(OCCCOc2nn(CCCC(F)(F)F)c(=O)n(CCCC(F)(F)F)c2=O)cc1 [Example 39, Ethyl 2-(4-{3-[3,5-dioxo-2,4-bis-(4,4,4-trifluoro-butyl)-2,3,4,5-tetrahydro-[1,2,4]triazin-6-yloxy]-propoxy}-phenoxy)-2-methyl-propionate] | 0.1 to 0.3 | ~3 | 3 to 10 |  |  |  |  | 
CCCCCCCn1nc(NCCOc2ccc(OC(C)(C)C(=O)OCC)cc2)c(=O)n(C)c1=O [Example 40, Ethyl 2-{4-[2-(2-heptyl-4-methyl-3,5-dioxo-2,3,4,5-tetrahydro-[1,2,4]triazin-6-ylamino)-ethoxy]-phenoxy}-2-methyl-propionate] | 3 to 10 | > 10 | ~10 |  |  |  |  | 

The next lines start with results.

EC50 (human PPARα) [µM] | EC50 (human PPARδ) [µM] | EC50 (human PPARγ) [µM] | SMILES | change in vivo at 2.5 mg/kg ([1]; 96 h, at 2.5 mg/kg, read-out: Plasma cholesterol) [%] | change in vivo at 10 mg/kg [1, 2] [%] | change in vivo at 10 mg/kg ([1]; 96 h, at 10 mg/kg, read-out: Plasma triglycerides) [%] | Plasma triglycerides ([1]; at 2.5 mg/kg) | Plasma triglycerides ([1]; at 10 mg/kg)
~0.1 | 1 to 3 | ~10 | CCOC(=O)C(C)(C)Oc1ccc(OCCNc2nn(CCCC(F)(F)F)c(=O)n(CCCC(F)(F)F)c2=O)cc1 [Example 41, Ethyl 2-(4-{2-[3,5-dioxo-2,4-bis-(4,4,4-trifluoro-butyl)-2,3,4,5-tetrahydro-[1,2,4]triazin-6-ylamino]-ethoxy}-phenoxy)-2-methyl-propionate] |  | -28 |  |  | inactive at 10
~1 | 1 to 3 | > 10 | CCCCCCCn1nc(NCCOc2ccc(OC(C)(C)C(=O)OCC)cc2)c(=O)n(CCCCCCC)c1=O [Example 42, Ethyl 2-{4-[2-(2,4-diheptyl-3,5-dioxo-2,3,4,5-tetrahydro-[1,2,4]triazin-6-ylamino)-ethoxy]-phenoxy}-2-methyl-propionate] |  |  |  |  | 
0.3 to 1 | ~3 | 0.3 to 1 | CCCCCCCn1c(=O)c(NCCCOc2ccc(OC(C)(C)C(=O)OCC)cc2)nn(CCCC(F)(F)F)c1=O [Example 48, Ethyl 2-(4-{3-[4-heptyl-3,5-dioxo-2-(4,4,4-trifluoro-butyl)-2,3,4,5-tetrahydro-[1,2,4]triazin-6-ylamino]-propoxy}-phenoxy)-2-methyl-propionate] |  |  |  |  | 
> 10 | 3 to 10 | 1 to 3 | CCCCCCCn1c(=O)c(NCCCCc2cccc(OC(C)(C)C(=O)OCC)c2)nn(Cc2ccccc2)c1=O [Example 89, Ethyl 2-{3-[4-(2-benzyl-4-heptyl-3,5-dioxo-2,3,4,5-tetrahydro-[1,2,4]triazin-6-ylamino)-butyl]-phenoxy}-2-methyl-propionate] |  |  |  |  | 
